# Measurements from ChEMBL document CHEMBL1201862, “PubChem BioAssay data set” (2004).
# Calls of active or inactive are those of the source.
# Legend:
# [1] = target: Leucine-rich repeat serine/threonine-protein kinase 2 (Homo sapiens, UniProt Q5S007); format: functional;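 further: value from a broad kinome-wide panel profiling study in which LRRK2 was one of the kinases tested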
# [2] = target: Inhibitor of nuclear factor kappa-B kinase subunit epsilon (Homo sapiens, UniProt Q14164); assay: Navigating the Kinome. Panel member name: IKBKE; format: functional
# [3] = target: Insulin-like growth factor 1 receptor (Homo sapiens, UniProt P08069); assay: Navigating the Kinome. Panel member name: IGF1R; format: functional
# [4] = target: Vascular endothelial growth factor receptor 2 (Homo sapiens, UniProt P35968); format: functional
# [5] = target: Calcium/calmodulin-dependent protein kinase type II subunit alpha (Homo sapiens, UniProt Q9UQM7); assay: Navigating the Kinome. Panel member name: CAMK2A; format: functional
# [6] = target: Tyrosine-protein kinase Lck (Homo sapiens, UniProt P06239); format: functional;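 further: lck was assayed as one member of a kinase panel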
# Chain of Tyrosine-protein kinase Lck (P06239 whole entry): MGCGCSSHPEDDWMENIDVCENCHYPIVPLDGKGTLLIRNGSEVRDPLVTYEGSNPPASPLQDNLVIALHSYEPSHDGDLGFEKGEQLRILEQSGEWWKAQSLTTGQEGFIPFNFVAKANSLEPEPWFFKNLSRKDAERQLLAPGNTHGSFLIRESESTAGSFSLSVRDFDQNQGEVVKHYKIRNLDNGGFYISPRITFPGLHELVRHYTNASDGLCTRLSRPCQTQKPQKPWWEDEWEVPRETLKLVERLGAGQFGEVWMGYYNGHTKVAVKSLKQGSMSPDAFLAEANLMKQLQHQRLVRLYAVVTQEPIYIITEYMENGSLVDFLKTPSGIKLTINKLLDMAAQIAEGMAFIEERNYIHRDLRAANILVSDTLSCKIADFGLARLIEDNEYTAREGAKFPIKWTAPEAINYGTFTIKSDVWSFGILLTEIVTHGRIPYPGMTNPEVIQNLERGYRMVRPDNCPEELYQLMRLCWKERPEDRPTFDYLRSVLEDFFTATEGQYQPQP
# [7] = target: Mitogen-activated protein kinase 8 (Homo sapiens, UniProt P45983); format: functional;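 further: value comes from one member of a kinome-wide kinase profiling panel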
# [8] = target: G protein-coupled receptor kinase 5 (Homo sapiens, UniProt P34947); assay: Navigating the Kinome. Panel member name: GPRK5; format: functional
# Chain of G protein-coupled receptor kinase 5 (P34947 whole entry): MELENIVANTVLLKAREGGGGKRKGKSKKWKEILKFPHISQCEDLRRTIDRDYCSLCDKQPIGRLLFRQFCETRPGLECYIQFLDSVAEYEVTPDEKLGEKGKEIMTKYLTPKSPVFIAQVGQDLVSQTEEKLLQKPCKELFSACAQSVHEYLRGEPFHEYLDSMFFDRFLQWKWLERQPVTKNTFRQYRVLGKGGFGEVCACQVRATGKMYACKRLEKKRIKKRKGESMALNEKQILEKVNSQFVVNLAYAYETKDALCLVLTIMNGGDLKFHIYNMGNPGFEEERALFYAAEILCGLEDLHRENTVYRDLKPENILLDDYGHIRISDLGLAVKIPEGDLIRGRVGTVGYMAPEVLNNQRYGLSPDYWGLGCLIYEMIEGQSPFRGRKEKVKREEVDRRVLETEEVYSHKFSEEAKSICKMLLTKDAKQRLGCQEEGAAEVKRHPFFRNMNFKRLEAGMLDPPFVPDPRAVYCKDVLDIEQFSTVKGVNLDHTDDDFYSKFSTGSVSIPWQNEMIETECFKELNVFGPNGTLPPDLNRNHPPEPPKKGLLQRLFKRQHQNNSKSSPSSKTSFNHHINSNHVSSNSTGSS
# [9] = target: Fibroblast growth factor receptor 1 (Homo sapiens, UniProt P11362); format: functional
# [10] = target: Casein kinase I isoform alpha (Homo sapiens, UniProt P48729); format: functional
# Chain of Casein kinase I isoform alpha (P48729 whole entry, canonical isoform): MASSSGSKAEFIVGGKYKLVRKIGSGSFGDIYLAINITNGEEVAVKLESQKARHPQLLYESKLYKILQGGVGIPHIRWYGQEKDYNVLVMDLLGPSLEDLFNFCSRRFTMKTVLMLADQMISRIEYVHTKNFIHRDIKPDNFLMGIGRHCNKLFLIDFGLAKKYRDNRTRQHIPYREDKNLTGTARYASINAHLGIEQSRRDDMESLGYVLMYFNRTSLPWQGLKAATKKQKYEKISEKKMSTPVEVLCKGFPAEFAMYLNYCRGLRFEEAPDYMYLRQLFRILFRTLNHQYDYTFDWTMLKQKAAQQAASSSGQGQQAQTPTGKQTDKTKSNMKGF
# [11] = target: Activated CDC42 kinase 1 (Homo sapiens, UniProt Q07912); assay: Navigating the Kinome. Panel member name: ACK1; format: functional
# [12] = target: Glycogen synthase kinase-3 beta (Homo sapiens, UniProt P49841); format: functional;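 further: value comes from a broad kinome profiling panel, with GSK3B as the panel member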
# [13] = target: T1, cAMP-dependent protein kinase catalytic subunit PRKX (Homo sapiens, UniProt P51817); format: functional
# T1 sequence (P51817 whole entry): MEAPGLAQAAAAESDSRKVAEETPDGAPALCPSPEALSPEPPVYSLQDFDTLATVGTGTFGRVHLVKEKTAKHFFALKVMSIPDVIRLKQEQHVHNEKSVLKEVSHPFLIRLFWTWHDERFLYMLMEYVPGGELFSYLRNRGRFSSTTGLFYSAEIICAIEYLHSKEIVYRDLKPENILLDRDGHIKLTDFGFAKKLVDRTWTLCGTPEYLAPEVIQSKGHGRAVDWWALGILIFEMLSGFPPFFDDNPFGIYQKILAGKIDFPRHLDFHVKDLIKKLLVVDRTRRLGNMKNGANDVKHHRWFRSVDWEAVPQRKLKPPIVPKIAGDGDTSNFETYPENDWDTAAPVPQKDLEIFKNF
# [14] = target: Aurora kinase B (Homo sapiens, UniProt Q96GD4); format: functional
# [15] = target: LIM domain kinase 1 (Homo sapiens, UniProt P53667); assay: Navigating the Kinome. Panel member name: LIMK1; format: functional
# [16] = target: T2, Aurora kinase A (Homo sapiens, UniProt O14965); format: functional;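 further: value from the Navigating the Kinome kinase panel profiling, panel entry STK6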
# T2 sequence (O14965 whole entry): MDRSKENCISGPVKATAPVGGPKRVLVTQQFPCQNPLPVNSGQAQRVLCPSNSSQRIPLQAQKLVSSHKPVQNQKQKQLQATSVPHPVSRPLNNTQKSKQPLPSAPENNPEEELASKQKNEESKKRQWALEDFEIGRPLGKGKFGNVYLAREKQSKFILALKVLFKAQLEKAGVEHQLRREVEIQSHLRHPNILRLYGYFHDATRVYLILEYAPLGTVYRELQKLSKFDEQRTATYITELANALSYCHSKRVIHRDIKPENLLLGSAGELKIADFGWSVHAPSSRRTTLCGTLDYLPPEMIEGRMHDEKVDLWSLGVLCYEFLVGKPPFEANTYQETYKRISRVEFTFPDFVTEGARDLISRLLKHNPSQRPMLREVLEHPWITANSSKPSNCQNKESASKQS
# [17] = target: High affinity nerve growth factor receptor (Homo sapiens, UniProt P04629); format: functional;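 further: NTRK1 tested as one member of a kinome-wide profiling panel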
# Chain of High affinity nerve growth factor receptor (P04629 whole entry): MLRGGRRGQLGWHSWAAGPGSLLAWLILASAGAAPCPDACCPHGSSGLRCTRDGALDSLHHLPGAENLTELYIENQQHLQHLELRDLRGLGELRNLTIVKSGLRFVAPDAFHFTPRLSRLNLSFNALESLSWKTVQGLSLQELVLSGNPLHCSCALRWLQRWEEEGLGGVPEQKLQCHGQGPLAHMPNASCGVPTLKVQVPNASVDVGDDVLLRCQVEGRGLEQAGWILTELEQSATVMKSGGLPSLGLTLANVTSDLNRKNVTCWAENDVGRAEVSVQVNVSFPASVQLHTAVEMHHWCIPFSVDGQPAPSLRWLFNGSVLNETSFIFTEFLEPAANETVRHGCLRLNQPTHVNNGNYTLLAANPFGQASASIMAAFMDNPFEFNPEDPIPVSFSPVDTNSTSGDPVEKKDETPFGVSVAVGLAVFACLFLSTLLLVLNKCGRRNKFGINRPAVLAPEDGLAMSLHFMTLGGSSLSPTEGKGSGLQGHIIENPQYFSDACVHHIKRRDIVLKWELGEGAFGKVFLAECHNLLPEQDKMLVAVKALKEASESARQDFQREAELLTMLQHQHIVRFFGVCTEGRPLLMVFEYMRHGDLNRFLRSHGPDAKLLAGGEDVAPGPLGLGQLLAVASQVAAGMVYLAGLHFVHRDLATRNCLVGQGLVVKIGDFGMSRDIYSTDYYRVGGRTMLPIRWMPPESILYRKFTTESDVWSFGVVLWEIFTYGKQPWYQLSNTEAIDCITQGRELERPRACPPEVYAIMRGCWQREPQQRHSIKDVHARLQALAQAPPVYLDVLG
# [18] = target: Cyclin-dependent kinase 8 (Homo sapiens, UniProt P49336); assay: Navigating the Kinome. Panel member name: CDK8; format: functional
# Chain of Cyclin-dependent kinase 8 (P49336 whole entry): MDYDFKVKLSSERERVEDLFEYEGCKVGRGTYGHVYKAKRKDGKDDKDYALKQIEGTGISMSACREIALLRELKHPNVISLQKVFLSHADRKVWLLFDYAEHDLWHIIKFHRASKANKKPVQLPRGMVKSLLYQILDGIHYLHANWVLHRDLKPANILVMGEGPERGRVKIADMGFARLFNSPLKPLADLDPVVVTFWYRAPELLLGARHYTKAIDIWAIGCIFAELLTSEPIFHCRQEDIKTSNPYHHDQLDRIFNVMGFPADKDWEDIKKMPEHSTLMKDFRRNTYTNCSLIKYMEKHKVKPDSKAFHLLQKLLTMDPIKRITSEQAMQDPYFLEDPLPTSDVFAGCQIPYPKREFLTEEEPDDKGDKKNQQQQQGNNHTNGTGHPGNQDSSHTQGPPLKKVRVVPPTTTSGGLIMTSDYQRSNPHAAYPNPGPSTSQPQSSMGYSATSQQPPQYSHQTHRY
# [19] = target: Tyrosine-protein kinase JAK2 (Homo sapiens, UniProt O60674); format: functional;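 further: JAK2 tested as one member of a kinase panel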
# [20] = target: Receptor-type tyrosine-protein kinase FLT3 (Homo sapiens, UniProt P36888); format: functional;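 further: FLT3 was tested as one member of a kinome-wide kinase panel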
# [21] = target: Cyclin-dependent kinase 5 (Homo sapiens, UniProt Q00535); format: functional;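 further: CDK5 measured as one member of a kinase profiling panel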
# Chain of Cyclin-dependent kinase 5 (Q00535 whole entry): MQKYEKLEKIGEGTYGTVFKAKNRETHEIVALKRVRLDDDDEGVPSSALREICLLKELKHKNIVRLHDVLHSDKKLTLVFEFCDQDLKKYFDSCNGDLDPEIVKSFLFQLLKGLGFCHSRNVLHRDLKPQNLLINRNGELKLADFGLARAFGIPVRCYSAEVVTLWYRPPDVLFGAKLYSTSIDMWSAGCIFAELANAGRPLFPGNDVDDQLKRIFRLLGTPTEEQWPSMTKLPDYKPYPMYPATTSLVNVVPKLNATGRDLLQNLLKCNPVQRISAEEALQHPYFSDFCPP
# [22] = target: Macrophage colony-stimulating factor 1 receptor (Homo sapiens, UniProt P07333); format: functional;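 further: value comes from the Navigating the Kinome screening panel, CSF1R member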
# [23] = target: Mitogen-activated protein kinase 9 (Homo sapiens, UniProt P45984); format: functional;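 further: value from a kinome panel profiling assay, MAPK9 panel entry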
# [24] = target: Tyrosine-protein kinase BTK (Homo sapiens, UniProt Q06187); format: functional
# Chain of Tyrosine-protein kinase BTK (Q06187 whole entry): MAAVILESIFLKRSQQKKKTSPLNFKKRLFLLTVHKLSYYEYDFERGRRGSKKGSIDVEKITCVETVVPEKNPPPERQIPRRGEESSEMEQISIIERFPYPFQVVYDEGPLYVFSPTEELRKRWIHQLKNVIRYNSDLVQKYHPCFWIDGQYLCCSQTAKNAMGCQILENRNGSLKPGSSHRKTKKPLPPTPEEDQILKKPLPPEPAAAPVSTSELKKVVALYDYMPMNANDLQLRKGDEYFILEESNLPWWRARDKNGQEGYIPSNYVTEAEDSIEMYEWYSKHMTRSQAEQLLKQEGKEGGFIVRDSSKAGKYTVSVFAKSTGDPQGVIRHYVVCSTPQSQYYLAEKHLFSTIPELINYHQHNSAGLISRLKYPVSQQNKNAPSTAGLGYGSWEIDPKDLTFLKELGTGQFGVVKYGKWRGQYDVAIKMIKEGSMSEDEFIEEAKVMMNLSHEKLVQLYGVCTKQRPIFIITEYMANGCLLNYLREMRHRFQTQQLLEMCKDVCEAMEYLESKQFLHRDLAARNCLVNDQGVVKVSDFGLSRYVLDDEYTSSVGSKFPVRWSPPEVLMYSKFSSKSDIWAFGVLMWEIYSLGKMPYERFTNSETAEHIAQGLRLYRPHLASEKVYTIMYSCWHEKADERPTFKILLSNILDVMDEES
# [25] = target: Cyclin-dependent kinase 7 (Homo sapiens, UniProt P50613); format: functional;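 further: value comes from a kinome-wide kinase profiling panel in which CDK7 is one member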
# Chain of Cyclin-dependent kinase 7 (P50613 whole entry): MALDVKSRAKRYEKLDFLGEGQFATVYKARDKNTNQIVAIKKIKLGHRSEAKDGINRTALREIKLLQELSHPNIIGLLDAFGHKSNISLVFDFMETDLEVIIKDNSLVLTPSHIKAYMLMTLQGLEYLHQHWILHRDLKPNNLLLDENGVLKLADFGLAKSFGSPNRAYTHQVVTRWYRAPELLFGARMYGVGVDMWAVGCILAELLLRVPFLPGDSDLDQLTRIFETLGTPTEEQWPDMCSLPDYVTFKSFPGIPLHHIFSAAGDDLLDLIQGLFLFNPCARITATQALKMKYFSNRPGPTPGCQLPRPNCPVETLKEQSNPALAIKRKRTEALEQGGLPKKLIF
# [26] = target: Hepatocyte growth factor receptor (Homo sapiens, UniProt P08581); format: functional;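 further: kinase panel profiling across the kinome, with MET as the panel member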
# [27] = target: Dual specificity protein kinase CLK2 (Homo sapiens, UniProt P49760); format: functional
# [28] = target: Tyrosine-protein kinase Fyn (Homo sapiens, UniProt P06241); format: functional
# [29] = target: Serine/threonine-protein kinase D3 (Homo sapiens, UniProt O94806); format: functional;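 further: determined within a kinase panel screen, with PRKCN as the panel member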
# [30] = target: Vascular endothelial growth factor receptor 1 (Homo sapiens, UniProt P17948); format: functional;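 further: measured within a kinome-wide profiling panel, FLT1 as the panel member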
# [31] = target: Leukocyte tyrosine kinase receptor (Homo sapiens, UniProt P29376); assay: Navigating the Kinome. Panel member name: LTK; format: functional
# Chain of Leukocyte tyrosine kinase receptor (P29376 whole entry): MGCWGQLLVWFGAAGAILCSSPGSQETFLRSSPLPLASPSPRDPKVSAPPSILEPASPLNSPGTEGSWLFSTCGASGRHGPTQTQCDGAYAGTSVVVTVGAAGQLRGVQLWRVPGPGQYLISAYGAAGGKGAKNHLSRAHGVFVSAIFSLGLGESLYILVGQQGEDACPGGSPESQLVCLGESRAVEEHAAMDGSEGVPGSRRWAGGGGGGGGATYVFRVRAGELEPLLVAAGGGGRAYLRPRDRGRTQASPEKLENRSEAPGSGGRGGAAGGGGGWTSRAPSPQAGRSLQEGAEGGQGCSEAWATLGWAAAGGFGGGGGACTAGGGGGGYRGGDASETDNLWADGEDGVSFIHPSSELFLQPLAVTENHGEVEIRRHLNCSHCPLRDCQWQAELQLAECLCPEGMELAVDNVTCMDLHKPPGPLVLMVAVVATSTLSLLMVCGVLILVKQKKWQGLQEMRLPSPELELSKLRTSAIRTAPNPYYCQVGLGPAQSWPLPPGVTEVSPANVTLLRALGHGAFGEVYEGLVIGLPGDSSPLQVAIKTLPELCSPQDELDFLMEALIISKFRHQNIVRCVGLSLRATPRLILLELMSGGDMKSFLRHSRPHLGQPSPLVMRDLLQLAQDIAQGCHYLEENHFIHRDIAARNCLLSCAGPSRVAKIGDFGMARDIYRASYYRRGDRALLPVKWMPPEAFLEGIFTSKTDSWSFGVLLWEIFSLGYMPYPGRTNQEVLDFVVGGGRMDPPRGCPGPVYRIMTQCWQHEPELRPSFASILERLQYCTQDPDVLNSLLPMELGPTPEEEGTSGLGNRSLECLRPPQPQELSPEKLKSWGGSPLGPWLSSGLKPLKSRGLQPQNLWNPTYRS
# [32] = target: Death-associated protein kinase 3 (Homo sapiens, UniProt O43293); format: functional;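 further: measured as one member of a kinome-wide profiling panel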
# [33] = NIH-3T3 fibroblast cytotoxicity, dose response, cytotoxicity control, cell-based, fluorescence, Alamar Blue, secondary assay (AID 2327); format: functional;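 further: NIH-3T3 mouse fibroblasts cultured with fluconazole at 8 µg/mL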
# [34] = test system: INS1; assay: INS-1E survival protection against cytokine death – cell-based, luminescence, retest, dose response (AID 449756); format: functional; details: Rattus norvegicus;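 further: cell death triggered by IL-1 beta plus TNF-alpha plus IFN-gamma mixture; protective hits raise ATP signal compared with cytokine alone wells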
# [35] = reduction of Shn3 3'UTR-driven luciferase in osteoblasts – cell-based, Clone20 osteoblasts, firefly luciferase, cherry-picked, dose response (AID 624132); format: functional;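 further: firefly luciferase luminescence from reporter carrying the Shn3 3'UTR in osteoblasts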
# [36] = target: Heat shock protein HSP 90-alpha (Homo sapiens, UniProt P07900); format: functional, organism-based
# [37] = non-specific 3'UTR reporter inhibition in Clone20-Shn3RL – cell-based, Renilla luciferase, cherry-picked, counter-screen for Shn3 inhibitor project, dose response (AID 624133); format: functional
Ki [1],Ki [2],Ki [3],Ki [4],Ki [5],Ki [6],Ki [7],Ki [8],Ki [9],Ki [10],Ki [11],Ki [12],Ki [13],Ki [14],Ki [15],Ki [16],Ki [17],Ki [18],Ki [19],Ki [20],Structure (SMILES),other results
> 2.51 µM (inactive),> 3.16 µM (inactive),794 nM (active),631 nM (active),1.58 µM (active),> 6.31 µM (inactive),794 nM (active),1 µM (active),1 µM (active),> 3.98 µM (inactive),2.51 µM (active),316 nM (active),> 3.16 µM (inactive),794 nM (active),> 3.16 µM (inactive),1.58 µM (active),631 nM (active),1.26 µM (active),794 nM (active),631 nM (active),Cc1ccc(-c2cc(-c3cc(Br)ccc3O)[nH]c(=O)c2C#N)s1,Ki [21]: > 3.16 µM (inactive); Ki [22]: 398 nM (active); Ki [23]: > 3.98 µM (inactive); Ki [24]: > 6.31 µM (inactive); Ki [25]: > 3.98 µM (inactive); Ki [26]: > 2.51 µM (inactive); Ki [27]: > 3.98 µM (inactive); Ki [28]: 3.16 µM (active); Ki [29]: > 3.98 µM (inactive); Ki [30]: > 3.98 µM (inactive); Ki [31]: > 2.51 µM (inactive); Ki [32]: > 5.01 µM (inactive)
–,–,–,–,–,–,–,–,–,–,–,–,–,–,–,–,–,–,–,–,Cc1ccc(C(=O)OCn2ncc(Cl)c(Cl)c2=O)cc1,EC50 [33]: 3.07 µM (inconclusive); AC50 [34]: 5.51 µM (active); AC50 [35]: 5.07 µM (active); AC50 [36]: 4.28 µM (active); AC50 [37]: 3.15 µM (active)
> 2.51 µM (inactive),> 3.16 µM (inactive),> 2510 nM (inactive),> 2510 nM (inactive),> 3.98 µM (inactive),> 6.31 µM (inactive),3160 nM (active),1.26 µM (active),0.794 µM (active),3.98 µM (active),> 3.98 µM (inactive),398 nM (active),> 3.16 µM (inactive),1000 nM (active),0.2 µM (active),0.501 µM (active),794 nM (active),0.794 µM (active),> 2510 nM (inactive),> 3160 nM (inactive),O=C(Nc1cccc(C2Nc3ccc4ccccc4c3C3C=CCC32)c1)c1ccc(F)cc1 (centres undefined),Ki [21]: > 3.16 µM (inactive); Ki [22]: > 2510 nM (inactive); Ki [23]: > 3.98 µM (inactive); Ki [24]: 5.01 µM (active); Ki [25]: 1.26 µM (active); Ki [26]: 0.316 µM (active); Ki [27]: > 3.98 µM (inactive); Ki [28]: > 6.31 µM (inactive); Ki [29]: > 3.98 µM (inactive); Ki [30]: > 3.98 µM (inactive); Ki [31]: > 2.51 µM (inactive); Ki [32]: > 5.01 µM (inactive)
–,–,–,–,–,–,–,–,–,–,–,–,–,–,–,–,–,–,–,–,CCCC(=O)NC(c1cccs1)c1cc(Cl)c2cccnc2c1O (centres undefined),EC50 [33]: > 150 µM (inactive); AC50 [34]: 1.42 µM (active); AC50 [35]: 3.16 µM (active); AC50 [36]: 1.47 µM (active); AC50 [37]: 4.36 µM (active)
